Measurements published in PMC5341752, “New bipyridine gold(III) dithiocarbamate-containing complexes exerted a potent anticancer activity against cisplatin-resistant cancer cells independent of p53 status” (Oncotarget, 2016).

Assays:
L-540 cells = assay: Growth inhibition, MTS assay, L-540 cells; type: cell-based, human; conditions: 72 h exposure; for IC50: mean ± SEM
Method: (§1) PC3 and MCF-7 cells (2.5 × 10^3), A2780, A2780cis (4.0 × 10^3), A2780CP-16 and lung cancer cells (H460, A549, H226, H838, H157, H1975, H2122, SKLU1 and H1299) were seeded in 96-well flat-bottomed microplates (100 μL) and incubated for 24 h (to allow cell adhesion) before drug testing. The medium was then removed and replaced with fresh medium containing the gold(III) complexes (compound 1–9) to be tested at increasing concentrations (from 0.01 to 100 μM) at 37°C for 72 h. Each treatment was performed in triplicate. Cell proliferation was assayed using the MTT assay. Alternatively, L-540 cells (2.0 × 10^5/mL) were seeded in 96-well plates and treated as previously described. After treatment, cell proliferation was evaluated by the MTS assay (Promega). IC50 (i.e., the half maximal inhibitory concentration representing the concentration of a substance required for 50% in vitro inhibition) IC75 and IC90 values (Supplementary Table S1) were calculated using the CalcuSyn software (Biosoft, Ferguson, MO, USA). Dependence of activity on p53 was assessed in A2780 cells following p53 knockdown by CRISPR [48].

MCF-7 cells = assay: Growth inhibition, MTT assay, MCF-7 cells; type: cell-based, human; conditions: for IC50: mean ± SEM
Method: as §1

[1] = tested on: A2780, A2780cis, MCF-7, PC3, L-540 cells; assay: DNA fragmentation, Apo-Direct, flow cytometry; type: cell-based, human; conditions: IC75, 72 h
Method: (§2) PC3 (2.5 × 10^4), MCF-7 (5.0 × 10^4), A2780 and A2780cis (5.0 × 10^4), and L-540 cells (2.0 × 10^5/mL) were incubated in six-well plates with compound 1 (IC75) (Figure 1) for 72 h. Annexin-V binding (Becton-Dickinson [BD] Pharmingen, San Jose, CA) together with propidium iodide (PI) staining was detected in tumor cells by flow cytometry, as described. Caspase 3 and 9 activation was evaluated using the fluorochrome inhibitors of caspases (FLICA) Caspa-TagTM caspase-3/7 (FAM-DEVD-FMK) and caspase 9 (FAM-LETD) (Chemicon International, Milan, Italy). Briefly, cells were treated with compound 1 (IC75), then harvested, washed and resuspended in warmed complete medium supplemented with FLICA for 1 h and then immediately analyzed by flow cytometry. DNA fragmentation was assessed using the Apo-Direct kit (Becton-Dickinson Pharmigen, CA, USA) according to manufacturer's instructions. […] Red fluorescence was immediately analyzed by flow cytometry. Viable cells were identified according to their forward and right-angle scattering, electronically gated and analyzed on a FACScan flow cytometer (BD), using CellQuest software (BD). […] After 72 h, ROS formation and viable cells number were evaluated by flow cytometry and trypan blue dye exclusion assay, respectively. […]

tumor cells [2] = assay: Caspase 9 activation, FLICA reagent, flow cytometry; type: cell-based, human; conditions: IC75, 24 h
Method: as §2

tumor cells [3] = assay: Mitochondrial membrane permeabilization, CMXRos, flow cytometry; type: cell-based, human; conditions: IC75, 24 h
Method: as §2

tumor cells [4] = assay: Mitochondrial ROS, MitoSox, flow cytometry; type: cell-based, human; conditions: IC75, 72 h
Method: as §2

[5] = Stability by UV-Vis spectra in DMSO over 24 hours at 37°C; type: physicochemical; conditions: DMSO solution
Method: Electronic spectra were recorded on each complex freshly prepared in DMSO solution at room temperature. Then, their electronic spectra were monitored over 24 hours at 37°C. The resulting UV-Vis absorption spectra of compound 1, 2 and 3 are shown in Supplementary Figure S4A–S4C.

[6] = tested on: A2780, A2780cis, MCF-7, PC3, L-540 cells; assay: Apoptosis, Annexin V/PI double staining, flow cytometry; type: cell-based, human; conditions: IC75, 72 h
Method: as §2

[7] = tested on: human Mesenchymal stromal cells (MSCs); assay: Proliferation of normal Mesenchymal stromal cells, MTT assay; type: cell-based; conditions: 72 h
Method: Bone Marrow (BM) derived human Mesenchymal Stromal Cells (MSCs) were from Lonza (Lonza, Verviers, Belgium). MSCs were maintained in MSGM bullet kit (Lonza) and experiments were performed in DMEM medium (Cambrex Bio Science, Milano, Italy) supplemented with 10% FCS. To evaluate effects of compound 1, MSCs (5.0 × 10^3) were seeded in 96-well flat-bottomed microplates (100 μL) and incubated for 24 h (to allow cell adhesion) before drug testing. The medium was then removed and replaced with fresh medium containing compound 1 to be tested at increasing concentrations (from 0.1 to 1 μM) at 37°C for 72 h. Each treatment was performed in triplicate. Cell proliferation was assayed using the MTT assay.

PC3 cells = assay: Growth inhibition, MTT assay, PC3 cells; type: cell-based, human; conditions: 72 h exposure; for IC50: mean ± SEM
Method: as §1

A2780cis cells = assay: Growth inhibition, MTT assay, cisplatin-resistant A2780cis cells; type: cell-based, human; conditions: for IC50: mean ± SEM
Method: as §1

[8] = tested on: A2780, A2780cis, MCF-7, PC3, L-540 cells; assay: Caspase 3 activation, FLICA reagent, flow cytometry; type: cell-based, human; conditions: IC75, 0, 24 and 48 h
Method: as §2

tumor cells [9] = assay: Cell cycle progression; type: cell-based; conditions: data not shown
A2780 cells = assay: Growth inhibition, MTT assay, A2780 cells; type: cell-based, human; conditions: 72 h exposure; for IC50: mean ± SEM
Method: as §1

tumor cells [10] = assay: Cytochrome-c release, flow cytometry; type: cell-based, human; conditions: IC75, 24 h
[11] = tested on: A2780 CRISPR Control cells (WT-p53); assay: MTT assay in A2780 clone transfected with CRISPR control plasmid; type: cell-based, human; conditions: mean ± SEM
Method: as §1

[12] = tested on: A2780 CRISPR p53 KO cells; assay: MTT assay in A2780 clone with p53 knocked out by CRISPR/Cas9; type: cell-based, human; conditions: mean ± SEM
Method: as §1

[13] = tested on: NSCLC cell lines (H460, A549, H226, H838, H157, H1975, H2122, SKLU1, H1299); assay: Cytotoxicity in a panel of NSCLC cell lines, MTT assay; type: cell-based; conditions: all NSCLC cell lines
Method: as §1

SMILES: CN(C)C1=[S+][Au-]2([S]1)[n+]1ccccc1-c1cccc[n+]12.[Cl-].[Cl-] [Compound 1, [Au(BPY)(DMTC)]Cl2]
- IC75 L-540 (L-540 cells): 3500 ± 320 nM
- IC90 (L-540 cells): 4200 ± 390 nM
- IC50 (L-540 cells): 2680 ± 240 nM
- IC75 MCF-7 (MCF-7 cells; 72 h exposure, MTT): 510 ± 50 nM
- IC90 (MCF-7 cells; 72 h exposure, MTT): 740 ± 80 nM
- IC50 (MCF-7 cells; 72 h exposure, MTT): 270 ± 20 nM
- fold more active than cisplatin in inhibiting cell proliferation (MCF-7 cells; MCF-7 cells): ~80 fold
- DNA fragmentation (Apo-Direct) [1]: Apoptosis induction was confirmed by DNA fragmentation
- caspase 9 activation (tumor cells [2]): induced activation of caspase 9
- mitochondrial membrane permeabilization (tumor cells [3]): promoted mitochondrial membrane permeabilization
- mitochondrial ROS levels (tumor cells [4]): increased mitochondrial ROS levels
- stability by UV spectra [5]: confirm the stability under physiological temperature
- apoptosis (Annexin-V/PI) [6]: induced apoptosis in the cell lines tested
- IC50 [7]: 960 nM
- IC75 PC3 (PC3 cells): 730 ± 70 nM
- IC90 (PC3 cells): 910 ± 110 nM
- IC50 (PC3 cells): 420 ± 40 nM
- IC75 A2780cis (A2780cis cells; 72 h exposure, MTT): 430 ± 40 nM
- IC90 (A2780cis cells; 72 h exposure, MTT): 560 ± 60 nM
- IC50 (A2780cis cells; 72 h exposure, MTT): 170 ± 10 nM
- fold more active than cisplatin in inhibiting cell proliferation (A2780cis cells; A2780cis cells): about 60 fold
- caspase 3 activation [8]: induced a time-dependent activation of caspase 3
- cell cycle progression (tumor cells [9]): only slightly affected
- IC75 A2780 (A2780 cells): 450 ± 40 nM
- IC90 (A2780 cells): 600 ± 50 nM
- IC50 (A2780 cells): 180 ± 20 nM
- cytochrome-c release from the mitochondria (tumor cells [10]): cytochrome-c (Cyt-c) release

SMILES: CCN(CC)C(=S)[S-].[Au+3].[Cl-].[Cl-].c1ccc(-c2ccccn2)nc1 [Compound 2, [Au(BPY)(DETC)]Cl2]
- IC50 (L-540 cells): 2800 ± 250 nM
- IC50 (MCF-7 cells; 72 h exposure, MTT): 270 ± 20 nM
- stability by UV spectra [5]: confirm the stability under physiological temperature
- IC50 (PC3 cells): 700 ± 60 nM
- IC50 (A2780cis cells; 72 h exposure, MTT): 180 ± 10 nM
- IC50 (A2780 cells): 240 ± 20 nM

SMILES: S=C([S-])N(Cc1ccccc1)Cc1ccccc1.[Au+3].[Cl-].[Cl-].c1ccc(-c2ccccn2)nc1 [Compound 3, [Au(BPY)(DBTC)]Cl2]
- IC50 (L-540 cells): 12000 ± 1080 nM
- IC50 (MCF-7 cells; 72 h exposure, MTT): 23000 ± 2070 nM
- stability by UV spectra [5]: confirm the stability under physiological temperature
- IC50 [11]: 870 ± 110 nM
- IC50 (PC3 cells): 11200 ± 1000 nM
- IC50 (A2780cis cells; 72 h exposure, MTT): 14300 ± 1120 nM
- Fold resistance A2780cis/A2780 ratio (A2780cis cells; ratio A2780cis IC50/A2780 IC50): 3.07
- IC50 [12]: 1130 ± 390 nM
- IC50 (A2780 cells): 4660 ± 130 nM

SMILES: Cc1ccc2[n+](c1)[Au-]1([S]C(N(C)C)=[S+]1)[n+]1cc(C)ccc1-2.[Cl-].[Cl-] [Compound 4, [Au(5,5′-Me2BPY)(DMTC)]Cl2]
- IC50 (L-540 cells): 2700 ± 220 nM
- IC50 (MCF-7 cells; 72 h exposure, MTT): 280 ± 20 nM
- fold greater potency than compounds 3, 6 and 9 [13]: at least 10 fold
- IC50 [11]: 87 ± 3 nM
- IC50 (PC3 cells): 590 ± 50 nM
- IC50 (A2780cis cells; 72 h exposure, MTT): 170 ± 10 nM
- IC50 [12]: 83 ± 3 nM
- IC50 (A2780 cells): 280 ± 30 nM

SMILES: CCN(CC)C1=[S+][Au-]2([S]1)[n+]1cc(C)ccc1-c1ccc(C)c[n+]12.Cl.Cl [Compound 5, [Au(5,5′-Me2BPY)(DETC)]Cl2]
- IC50 (L-540 cells): 2900 ± 260 nM
- IC50 (MCF-7 cells; 72 h exposure, MTT): 290 ± 30 nM
- IC50 (PC3 cells): 860 ± 80 nM
- IC50 (A2780cis cells; 72 h exposure, MTT): 230 ± 20 nM
- IC50 (A2780 cells): 590 ± 50 nM
